# Test results as given in patent US20050256132A1, “Use of ER selective NF-kB inhibitors for the treatment of sepsis” (priority 2003, published 2005).
# Where two headings read alike, the source gives them in different places.
# Key:
# ER/IL-6 = experiment: Endothelial Cell ER/IL-6 Assay, IL-6 promoter luciferase (Table 2); type: cell-based, human; settings: ERα infected HAECT-1 cells, IL-1β; for Emax: read-out: IL6 luc % Efficacy; for IC50: read-out: IL6 luc IC50
# In short: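 One lysate gave both read-outs: luciferase for ER/IL-6 and A340 rate after CK reagent for CK, with four-parameter logistic IC50/EC50. Cells were HAECT-1 aortic endothelial cells carrying adenoviral human ERα (or none), dosed […] at 34 °C from 2× stocks containing 2 ng/ml IL-1β and IL-6(1250 bp)-Luc adenovirus.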
# CK = experiment: Creatine kinase assay in ERα infected HAECT-1 cells (Table 2); type: cell-based, human; settings: for Emax: HAECT1, read-out: CK % Efficacy
# Experimental: T-175 flasks of 100% confluent HAECT-1 cells (immortalized human aortic endothelial cells) were washed with 8 ml of HBSS (HEPES buffered saline solution) and infected for fours hours with 6 ml of a 1:10 dilution of Ad5-wt-hERα virus (an adenovirus transfection vector that mediates CMV promoter driven expression of human ERα) in phenol red free Endothelial Cell Basal medium (Clonetics, San Diego, Calif., Catalog # CC-3129) containing 0.25% bovine serum albumin (EDM-BSA). After four hours, cells were washed with EDM-BSA and incubated overnight in the same medium. Following overnight incubation, cells were washed with EDM-BSA and infected for 2 hours with 6 ml of a 1:10 dilution of Ad5-3x(NFκB).Luc virus (Adenovirus luciferase expression vector driven by three repeats of the MHC NFκb sites 5′ to the thymidine kinase promoter) in EDM-BSA. After two hours, cells were washed and incubated at 34° C. for one hour. Cells were then washed, trypsinized, counted, and resuspended in 95% FBS/5% dimethylsulfoxide at a concentration of […], frozen as 1 or 5 ml aliquots in cryo-vials and stored at −150° C. Control (no ER infection) cells were processed as above without Ad5-wt-hERα virus infection.
# ERα infected HAECT-1 cells or control cells were thawed, diluted 42× in warm EBM-BSA, plated into 96-well plates at 0.1 ml/well and incubated for 4 hours at 34° C. Test compounds were added to the cells at 2× stocks in EBM-BSA containing 2 ng/ml IL-1β Ad6-IL-6(1250 bp).Luc virus and plates were returned to the incubator (34° C.). After […], cells were lysed with 50 μl of Promega Cell Culture Lysis reagenet for about 5 minutes at room temperature on a shaker. After lysing, 15 μl of lysate is transferred to luminometer plates for luciferase determination. Luciferase activity is evaluated using a Perkin Elmer Victor2 1420 multilabel counter. Creatine kinase was determined from the rate of increase in A340 following addition of 100 μl of CK assay reagent (Sigma catalog no. 47-10) to the remainder of the cell lysate.
# For IC50 and EC50 calculations, mean IL-6, luciferase or CK values versus log10 of the compound concentration were fitted to a four parameter logistic equation. The IC50/EC50 value, ‘Hill slope,’ upper and lower limits of the curve were iteratively estimated.
melting point [°C],"IC50 (ER/IL-6; Homo sapiens, HAECT1) [nM]","EC50 (CK; Homo sapiens, HAECT1) [nM]",IC50 (ER/IL-6) [nM],EC50 (CK) [nM],SMILES,"Emax (ER/IL-6; Homo sapiens, HAECT1) [%]",Emax (CK; Homo sapiens) [%],IL6 luc % Efficacy (ER/IL-6) [%],CK % Efficacy (CK) [%]
,,,5.6,64,"COCC(C#N)(C(=O)N1CC=C(c2c[nH]c3ccccc23)CC1)C(c1ccccc1OC)c1cccc2ccccc12 (stereo not drawn) [Example 213, (RR,SS)-3-[4-(1H-indol-3-yl)-3,6-dihydropyridin-1(2H)-yl]-2-(methoxymethyl)-2-[(2-methoxyphenyl)(1-naphthyl)methyl]-3-oxopropanenitrile]",,,103,26
,,,203,,"COc1ccccc1C(c1cccc2ccccc12)C(C#N)(COCc1ccccc1)C(=O)N1CCN(C2CCCCC2)CC1 (stereo not drawn) [Example 217, (RR,SS)-2-[(benzyloxy)methyl]-3-(4-cyclohexylpiperazin-1-yl)-2-[(2-methoxyphenyl) (1-naphthyl)methyl]-3-oxopropanenitrile]",,,12,−37
,,,103,,"COc1ccccc1[C@@H](c1cccc2ccccc12)[C@@](C#N)(COCc1ccccc1)C(=O)N1CCN(c2ncccn2)CC1 [Example 218, (RR,SS)-2-[(benzyloxy)methyl]-3-(2-methoxyphenyl)-3-(1-naphthyl)-2-[(4-pyrimidin-2-ylpiperazin-1-yl)carbonyl]propanenitrile]",,,101,−12
,,,344,,"COc1ccccc1[C@@H](c1cccc2ccccc12)[C@@](C#N)(COCc1ccccc1)C(=O)N1CCN(c2cnccn2)CC1 [Example 220, (RR,SS)-2-[(benzyloxy)methyl]-3-(2-methoxyphenyl)-3-(1-naphthyl)-2-[(4-pyrazin-2-ylpiperazin-1-yl)carbonyl]propanenitrile]",,,128,6
,,,304,33,"COC[C@@](C#N)(C(=O)N1CCN(C2CCCCC2)CC1)[C@@H](c1ccccc1OC)c1cccc2ccccc12 [Example 222, (2R,3R)-3-(4-cyclohexylpiperazin-1-yl)-2-(methoxymethyl)-2-[(2-methoxyphenyl)(1-naphthyl)methyl]-3-oxopropanenitrile]",,,170,
,,,1600,,COC[C@](C#N)(C(=O)N1CC=C(c2c[nH]c3ccccc23)CC1)[C@H](c1ccccc1OC)c1cccc2ccccc12 [Example 225],,,83,−12
,,,220,138,COC[C@@](C#N)(C(=O)N1CC=C(c2c[nH]c3ccccc23)CC1)[C@@H](c1ccccc1OC)c1cccc2ccccc12 [Example 226],,,115,18

# More lines, now with the values behind:
SMILES,melting point [°C],"IC50 (ER/IL-6; Homo sapiens, HAECT1) [nM]","EC50 (CK; Homo sapiens, HAECT1) [nM]",IC50 (ER/IL-6) [nM],EC50 (CK) [nM],"Emax (ER/IL-6; Homo sapiens, HAECT1) [%]",Emax (CK; Homo sapiens) [%],IL6 luc % Efficacy (ER/IL-6) [%],CK % Efficacy (CK) [%]
"COC[C@](C#N)(C(=O)OC)[C@H](c1ccccc1OC)c1cccc2ccccc12 (relative stereo) [Example 141, Methyl (2S*,3S*)-2-cyano-2-(methoxymethyl)-3-(2-methoxyphenyl)-3-(1-naphthyl)propanoate]",148.3 to 151,,,,,123,39,,
"COC(=O)[C@@](C#N)(Cc1ccccn1)[C@H](c1ccccc1OC)c1cccc2ccccc12 (relative stereo) [Example 143, Methyl (2S*,3S*)-2-cyano-3-(2-methoxyphenyl)-3-(1-naphthyl)-2-(pyridin-2-ylmethyl)propanoate]",194.4 to 196.3,39,74,,,91,38,,
"COC(=O)[C@@](C#N)(Cc1ccc(Br)cc1)[C@H](c1ccccc1OC)c1cccc2ccccc12 (relative stereo) [Example 152, Methyl (2S*,3S*)-2-(4-bromobenzyl)-2-cyano-3-(2-methoxyphenyl)-3-(1-naphthyl)propanoate]",218 to 219,19,85,,,130,14,,
"COC(=O)[C@@](C#N)(Cc1ccc(-c2cccc(C(F)(F)F)c2)cc1)[C@H](c1ccccc1OC)c1cccc2ccccc12 (relative stereo) [Example 153, Methyl (2S*,3S*)-2-cyano-3-(2-methoxyphenyl)-3-(1-naphthyl)-2-{[3′-(trifluoromethyl)-1,1′-biphenyl-4-yl]methyl}propanoate]",202 to 204.1,149,,,,150,15,,
"COC(=O)[C@@](C#N)(CCN(C)C)[C@H](c1ccccc1OC)c1cccc2ccccc12 (relative stereo) [Example 157, Methyl (2S*)-2-cyano-4-(dimethylamino)-2-[(S*)-(2-methoxyphenyl)(1-naphthyl)methyl]butanoate]",142 to 144.5,23,,,,110,-100,,
"COC[C@](C#N)(C(=O)NCC(C)(C)C)[C@H](c1ccccc1OC)c1cccc2ccccc12 (relative stereo) [Example 181, (2S*,3S*)-2-cyano-N-(2,2-dimethylpropyl)-2-(methoxymethyl)-3-(2-methoxyphenyl)-3-(1-naphthyl)propanamide]",184.9 to 185.5,389,,,,104,2,,
"COCCOC[C@@](C#N)(C(=O)OC(C)(C)C)[C@@H](c1ccccc1OC)c1cccc2ccccc12 [Example 173, tert-Butyl (RR,SS)-2-cyano-2-[(2-methoxyethoxy)methyl]-3-(2-methoxyphenyl)-3-(1-naphthyl)propanoate]",,,,72,,,,124,−13
"COc1ccccc1C(c1cccc2ccccc12)C(C#N)(Cc1cccnc1)C(=O)N1CCN(c2ncccn2)CC1 (stereo not drawn) [Example 174, (RR,SS)-3-(2-methoxyphenyl)-3-(1-naphthyl)-2-(pyridin-3-ylmethyl)-2-[(4-pyrimidin-2-ylpiperazin-1-yl)carbonyl]propanenitrile]",,,,1820,,,,49,34
"COc1ccccc1[C@@H](c1cccc2ccccc12)[C@@](C#N)(Cc1cccnc1)C(=O)N1CCN(c2cnccn2)CC1 [Example 177, (RR,SS)-3-(2-methoxyphenyl)-3-(1-naphthyl)-2-[(4-pyrazin-2-ylpiperazin-1-yl)carbonyl]-2-(pyridin-3-ylmethyl)propanenitrile]",,,,1150,,,,91,−32
"COc1ccccc1C(c1cccc2ccccc12)C(C#N)(Cc1cccnc1)C(=O)N1CC=C(c2c[nH]c3ccccc23)CC1 (stereo not drawn) [Example 178, (RR,SS)-3-[4-(1H-indol-3-yl)-3,6-dihydropyridin-1(2H)-yl]-2-[(2-methoxyphenyl)(1-naphthyl)methyl]-3-oxo-2-(pyridin-3-ylmethyl)propanenitrile]",,,,94,,,,137,−100
COc1ccccc1[C@H](c1cccc2ccccc12)[C@@](C)(C#N)C(=O)N1CCC2(CC1)OCCO2 [Example 188],,,,63,,,,107,39
"COC[C@@](C#N)(C(=O)N1CCN(c2ncccn2)CC1)[C@@H](c1ccccc1OC)c1cccc2ccccc12 [Example 200, (RR,SS)-2-(methoxymethyl)-3-(2-methoxyphenyl)-3-(1-naphthyl)-2-[(4-pyrimidin-2-ylpiperazin-1-yl)carbonyl]propanenitrile]",,,,157,,,,162,13
"COCC(C#N)(C(=O)N1CCN(C2CCCCC2)CC1)C(c1ccccc1OC)c1cccc2ccccc12 (stereo not drawn) [Example 209, (RR,SS)-3-(4-cyclohexylpiperazin-1-yl)-2-(methoxymethyl)-2-[(2-methoxyphenyl)(1-naphthyl)methyl]-3-oxopropanenitrile]",,,,87,,,,116,2
"COCC(C#N)(C(=O)N1CCN(c2cnccn2)CC1)C(c1ccccc1OC)c1cccc2ccccc12 (stereo not drawn) [Example 212, (RR,SS)-2-(methoxymethyl)-3-(2-methoxyphenyl)-3-(1-naphthyl)-2-[(4-pyrazin-2-ylpiperazin-1-yl)carbonyl]propanenitrile]",,,,59,138,,,113,22
